Values of other authors, collected in publication PMC8389614, “A Comparison of Acute Pharmacological Effects of Methylone and MDMA Administration in Humans and Oral Fluid Concentrations as Biomarkers of Exposure” (Biology, 2021).
Like-named read-outs stand apart in the source and are kept apart here.

Experiments:
[1] = cited from earlier work; for Median overall OF/B ratio: oral fluid vs plasma
5-HT2A receptors = tested on: 5-HT2A receptors; set-up: method as in PMID 25237120, PMID 23583454; details: significantly lower potencies than MDMA; cited from earlier work

SMILES	Maximum oral fluid to blood (OF/B) ratio ([1]; at 1.5 h after a 100 mg dose)	Median overall OF/B ratio ([1]; high dose 1.6 mg/kg)	Median overall OF/B ratio ([1]; low dose 1.0 mg/kg)	Affinity for binding 5-HT2A receptors (5-HT2A receptors)
CNC(C)Cc1ccc2c(c1)OCO2 (stereo not shown) [MDMA, 3,4-methylenedioxymethamphetamine]	18.1 ± 7.9	6.0	5.2	
CNC(C)C(=O)c1ccc2c(c1)OCO2 (stereo not shown) [Methylone, 3,4-methylenedioxymethcathinone]				some affinity
